Here are results for six compounds from ChEMBL document CHEMBL1212927, “Synthesis and structure-activity relationships of novel 8a-aza-8a-homoerythromycin A ketolides” (2010).

The subject of test [1] is Streptococcus pneumoniae. The experiment in a line: Antibacterial activity against efflux-resistant Streptococcus pneumoniae B0326 by agar microdilution method. Type of test: functional.
For test [2], the system named is Streptococcus pyogenes. Nature of the test: Antibacterial activity against constitutive macrolide-lincosamide-streptogramin B-resistant Streptococcus pyogenes B0544 by agar microdilution method. It counts as functional.
For test [3], the system named is Haemophilus influenzae. The experiment in a line: Antibacterial activity against Haemophilus influenzae B0529 by agar microdilution method. Type of test: functional.
Test [4] deals with Staphylococcus aureus. The experiment in a line: Antibacterial activity against efflux-resistant Staphylococcus aureus B0331 by agar microdilution method. It counts as functional.
The subject of test [5] is Staphylococcus aureus. The experiment in a line: Antibacterial activity against erythromycin A-susceptible Staphylococcus aureus B0329 by agar microdilution method.
Test [6] relates to Staphylococcus aureus. The experiment in a line: Antibacterial activity against constitutive macrolide-lincosamide-streptogramin B-resistant Staphylococcus aureus B0330 by agar microdilution method. Type of test: functional.
The test system of test [7] is Moraxella catarrhalis. Nature of the test: Antibacterial activity against Moraxella catarrhalis B0324 by agar microdilution method. It counts as functional.
Test [8] has as its system Staphylococcus aureus. Nature of the test: Antibacterial activity against inducible macrolide-lincosamide-streptogramin B-resistant Staphylococcus aureus B0538 by agar microdilution method. Type of test: functional.
In test [9] the test system is Streptococcus pneumoniae. Nature of the test: Antibacterial activity against erythromycin-susceptible Streptococcus pneumoniae B0541 by agar microdilution method.
Test [10] has as its system Streptococcus pyogenes. Nature of the test: Antibacterial activity against inducible macrolide-lincosamide-streptogramin B-resistant Streptococcus pyogenes B0543 by agar microdilution method. Type of test: functional.
In test [11] the test system is Streptococcus pyogenes. Nature of the test: Antibacterial activity against efflux-resistant Streptococcus pyogenes B0545 by agar microdilution method. Type of test: functional.
In test [12] the test system is Streptococcus pneumoniae. Nature of the test: Antibacterial activity against constitutive macrolide-lincosamide-streptogramin B-resistant Streptococcus pneumoniae B0627 by agar microdilution method. Type of test: functional.
The subject of test [13] is Streptococcus pyogenes. Nature of the test: Antibacterial activity against erythromycin A-susceptible Streptococcus pyogenes B0542 by agar microdilution method.

Converted amounts (≈) assume the structure as drawn.

Take `C=CCO[C@]1(C)C[C@@H](C)NC(=O)[C@H](C)[C@@H](O)[C@](C)(O)[C@@H](CC)OC(=O)[C@H](C)C(=O)[C@H](C)[C@H]1O[C@@H]1O[C@H](C)C[C@H](N(C)C)[C@H]1O`: the MIC is 4 µg/mL (≈ 6.36 µM) in test [1]; > 64 µg/mL in [2]; 16 µg/mL (≈ 25.4 µM) in test [3]; 16 µg/mL (≈ 25.4 µM) in [4]; 8 µg/mL (≈ 12.7 µM) in test [5]; > 64 µg/mL in test [6]. Moreover, the MIC in test [7] is 8 µg/mL (≈ 12.7 µM); in test [8], > 64 µg/mL; in test [9], 1 µg/mL (≈ 1.59 µM); in [10], > 64 µg/mL; in test [11] it was 8 µg/mL (≈ 12.7 µM); in test [12], > 64 µg/mL. For the same compound, the MIC in test [13] was 4 µg/mL (≈ 6.36 µM).

For the compound `CC[C@H]1OC(=O)[C@H](C)C(=O)[C@H](C)[C@@H](O[C@@H]2O[C@H](C)C[C@H]([N+](C)(C)[O-])[C@H]2O)[C@](C)(OCC2CO2)C[C@@H](C)NC(=O)[C@H](C)[C@@H](O)[C@]1(C)O` (stereo partly drawn), the MIC in test [1], in test [2], in test [3], in test [4], in test [5] and in test [6] was > 64 µg/mL throughout. Besides, the MIC in test [7], in [8], in [9], in [10], in test [11] and in test [12] was > 64 µg/mL each time. Further, the MIC in [13] was > 64 µg/mL.

For `CC[C@H]1OC(=O)[C@H](C)C(=O)[C@H](C)[C@@H](O[C@@H]2O[C@H](C)C[C@H](N(C)C)[C@H]2O)[C@](C)(OCC2CO2)C[C@@H](C)NC(=O)[C@H](C)[C@@H](O)[C@]1(C)O` (stereo partly drawn), the MIC in test [1] was 8 µg/mL (≈ 12.4 µM); in [2], > 64 µg/mL; in test [3], 32 µg/mL (≈ 49.6 µM); in test [4], 16 µg/mL (≈ 24.8 µM); in test [5], 4 µg/mL (≈ 6.2 µM); in test [6], > 64 µg/mL. The MIC in test [7] is 16 µg/mL (≈ 24.8 µM); in test [8] it was > 64 µg/mL; in test [9], 2 µg/mL (≈ 3.1 µM); in test [10] it was > 64 µg/mL; in test [11] it was 8 µg/mL (≈ 12.4 µM); in test [12], > 64 µg/mL. The compound also displayed an MIC in test [13] of 4 µg/mL (≈ 6.2 µM).

As for `CC[C@H]1OC(=O)[C@H](C)C(=O)[C@H](C)[C@@H](O[C@@H]2O[C@H](C)C[C@H](N(C)C)[C@H]2O)[C@](C)(OCC(O)CNCCCc2ccccc2)C[C@@H](C)NC(=O)[C@H](C)[C@@H](O)[C@]1(C)O` (stereo partly drawn), the MIC in [1] is 8 µg/mL (≈ 10.3 µM); in [2], 16 µg/mL (≈ 20.5 µM); in test [3] it was 16 µg/mL (≈ 20.5 µM); in [4], 8 µg/mL (≈ 10.3 µM); in [5] it was 4 µg/mL (≈ 5.13 µM); in test [6] it was > 64 µg/mL. In addition, the MIC in test [7] was determined as 1 µg/mL (≈ 1.28 µM); in test [8], 8 µg/mL (≈ 10.3 µM); in test [9], 0.25 µg/mL (≈ 0.321 µM); in [10], 1 µg/mL (≈ 1.28 µM); in [11] it was 1 µg/mL (≈ 1.28 µM); in test [12], 8 µg/mL (≈ 10.3 µM). The MIC in [13] worked out at 0.25 µg/mL (≈ 0.321 µM).

`CC[C@H]1OC(=O)[C@H](C)C(=O)[C@H](C)[C@@H](O[C@@H]2O[C@H](C)C[C@H](N(C)C)[C@H]2O)[C@](C)(OCC(O)CNCCc2cccnc2)C[C@@H](C)NC(=O)[C@H](C)[C@@H](O)[C@]1(C)O` (stereo partly drawn): the MIC is 8 µg/mL (≈ 10.4 µM) in test [1]; 32 µg/mL (≈ 41.7 µM) in test [2]; 8 µg/mL (≈ 10.4 µM) in test [3]; 4 µg/mL (≈ 5.22 µM) in [4]; 4 µg/mL (≈ 5.22 µM) in test [5]; > 64 µg/mL in [6]. Besides, the MIC in [7] is 1 µg/mL (≈ 1.3 µM); in test [8], 8 µg/mL (≈ 10.4 µM); in test [9], 0.5 µg/mL (≈ 0.652 µM); in test [10], 4 µg/mL (≈ 5.22 µM); in [11], 2 µg/mL (≈ 2.61 µM); in test [12], 2 µg/mL (≈ 2.61 µM). This compound displayed an MIC in [13] of 0.25 µg/mL (≈ 0.326 µM).

In the case of `CC[C@H]1OC(=O)[C@H](C)C(=O)[C@H](C)[C@@H](O[C@@H]2O[C@H](C)C[C@H](N(C)C)[C@H]2O)[C@](C)(OCC(O)CNCCCc2cccnc2)C[C@@H](C)NC(=O)[C@H](C)[C@@H](O)[C@]1(C)O` (stereo partly drawn), the MIC in test [1] was 4 µg/mL (≈ 5.12 µM); in test [2] it was 16 µg/mL (≈ 20.5 µM); in test [3], 16 µg/mL (≈ 20.5 µM); in [4] it was 4 µg/mL (≈ 5.12 µM); in test [5], 2 µg/mL (≈ 2.56 µM); in test [6], > 64 µg/mL. The MIC in [7] worked out at 0.5 µg/mL (≈ 0.64 µM); in [8], 4 µg/mL (≈ 5.12 µM); in test [9], 0.25 µg/mL (≈ 0.32 µM); in [10], 0.5 µg/mL (≈ 0.64 µM); in test [11], 1 µg/mL (≈ 1.28 µM); in [12] it was 1 µg/mL (≈ 1.28 µM). Besides, in [13], the MIC is ≤ 0.125 µg/mL.
